Results on one compound are retold here after US11033642B2, “Multidentate bifunctional chelating agents for radionuclide complexation in diagnostics and therapy” (UNIVERSITAT ZURICH, priority 2014, dated 2021).

This data set in a line: Solubility observed during complexation. Format: physicochemical. On the procedure: Ligand II is not soluble either in 0.1 M HCl or in H2O. The complexation was carried out in MeOH using zirconium (IV) acetylacetonate [Zr(acac)4]. A mixture of ligand II (50 mg, 0.058 mmol) and Zr(acac)4 (28.3 mg, 0.058 mmol) in 15 mL MeOH was heated at reflux for 15 h with continuous stirring under N2 atmosphere. The solvent was then removed and the residue was then washed with Et2O (20 mL) and acetone (10 mL). The compound was obtained as off white solid (48 mg, 87%). The compound is it not soluble in common organic solvents including DMSO. […] Therefore due to the limited solubility NMR spectra of the compound could not be obtained. However, the formation of the complex can be confirmed using LC-MS. Elemental analysis calculated for C38H64N8O14Zr.6H2O.(CH3)2CO3C, 44.19, H, 7.42, N, 10.06. Found C, 44.11, H, 7.04, N, 10.16.

As to `CC(=O)N(O)CCCCCNC(=O)CCC(=O)N(O)CCCCCNC(=O)CCC(=O)N(O)CCCCCNC(=O)CCC(=O)N(O)CCCCCNC(=O)CCC(=O)O` [Ligand II, 4-[5-[[4-[5-[[4-[5-[[4-[5-[acetyl(hydroxy)amino]pentylamino]-4-oxo-butanoyl]-hydroxy-amino]pentylamino]-4-oxo-butanoyl]-hydroxy-amino]pentylamino]-4-oxo-butanoyl]-hydroxy-amino]pentylamino]-4-oxo-butanoic acid], the “solubility in 0.1 M HCl” value (0.1 M HCl) is given as “not soluble”. For the same compound, the “solubility in H2O” value (H2O) is recorded as “not soluble”.
